From the supplement of paper PMC10883282

What was measured:
Test in all cases: relative viability vs DMSO control (72 h) (fraction); higher = more viable cells
RD = test system: RD
In short: (§1)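 Sarcoma cell lines in 384-well plates, seeded to reach 80–90% confluence, were given compound after 24 h and kept 72 h at 37 °C, 5% CO2, with 0.1% DMSO vehicle and a 5 µM positive control. Relative viability came from ATPLite as percent growth, averaged over up to triplicate wells. On the rescaled values, 1 equals full and 0 equals none.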

SK-ES-1 = test system: SK-ES-1
In short: as §1

HT1080 = test system: HT1080
In short: as §1

KHOS-240S = test system: KHOS-240S
In short: as §1

SK-LMS-1 = test system: SK-LMS-1
In short: as §1

VA-ES-BJ = test system: VA-ES-BJ
In short: as §1

MES-SA = test system: MES-SA
In short: as §1

G401 = test system: G401
In short: as §1

SW1353 = test system: SW1353
In short: as §1

RD-ES = test system: RD-ES
In short: as §1

SYO-1 = test system: SYO-1
In short: as §1

SW982 = test system: SW982
In short: as §1

CC(C)NC[C@@H](C(=O)N1CCN(c2ncnc3c2[C@H](C)C[C@H]3O)CC1)c1ccc(Cl)cc1 [Ipatasertib]
Conditions | relative viability
G401, 0.00017 µM | 1.03
G401, 0.00051 µM | 1.04
G401, 0.00152 µM | 1.01
G401, 0.00457 µM | 0.956
G401, 0.01372 µM | 0.942
G401, 0.04115 µM | 0.89
G401, 0.1235 µM | 0.863
G401, 0.3704 µM | 0.786
G401, 1.111 µM | 0.707
G401, 3.333 µM | 0.655
G401, 10 µM | 0.613
HT1080, 0.00017 µM | 1.1
HT1080, 0.00051 µM | 1.08
HT1080, 0.00152 µM | 1.1
HT1080, 0.00457 µM | 1.05
HT1080, 0.01372 µM | 1.07
HT1080, 0.04115 µM | 1.04
HT1080, 0.1235 µM | 1.1
HT1080, 0.3704 µM | 1.07
HT1080, 1.111 µM | 1.055
HT1080, 3.333 µM | 0.997
HT1080, 10 µM | 0.994
KHOS-240S, 0.00017 µM | 1.06
KHOS-240S, 0.00051 µM | 1.04
KHOS-240S, 0.00152 µM | 1.05
KHOS-240S, 0.00457 µM | 1.05
KHOS-240S, 0.01372 µM | 1.06
KHOS-240S, 0.04115 µM | 0.991
KHOS-240S, 0.1235 µM | 1.01
KHOS-240S, 0.3704 µM | 0.938
KHOS-240S, 1.111 µM | 0.87
KHOS-240S, 3.333 µM | 0.823
KHOS-240S, 10 µM | 0.703
MES-SA, 0.00017 µM | 0.935
MES-SA, 0.00051 µM | 0.904
MES-SA, 0.00152 µM | 0.9385
MES-SA, 0.00457 µM | 0.905
MES-SA, 0.01372 µM | 0.8986
MES-SA, 0.04115 µM | 0.847
MES-SA, 0.1235 µM | 0.751
MES-SA, 0.3704 µM | 0.619
MES-SA, 1.111 µM | 0.467
MES-SA, 3.333 µM | 0.317
MES-SA, 10 µM | 0.24
RD, 0.00017 µM | 1.03
RD, 0.00051 µM | 1.06
RD, 0.00152 µM | 1.06
RD, 0.00457 µM | 1.05
RD, 0.01372 µM | 1.07
RD, 0.04115 µM | 1.05
RD, 0.1235 µM | 0.991
RD, 0.3704 µM | 0.916
RD, 1.111 µM | 0.799
RD, 3.333 µM | 0.681
RD, 10 µM | 0.623
RD-ES, 0.00017 µM | 0.9447
RD-ES, 0.00051 µM | 0.932
RD-ES, 0.00152 µM | 0.954
RD-ES, 0.00457 µM | 0.9221
RD-ES, 0.01372 µM | 0.925
RD-ES, 0.04115 µM | 0.869
RD-ES, 0.1235 µM | 0.844
RD-ES, 0.3704 µM | 0.7432
RD-ES, 1.111 µM | 0.601
RD-ES, 3.333 µM | 0.52
RD-ES, 10 µM | 0.4354
SK-ES-1, 0.00017 µM | 1.03
SK-ES-1, 0.00051 µM | 1.04
SK-ES-1, 0.00152 µM | 1.01
SK-ES-1, 0.00457 µM | 1
SK-ES-1, 0.01372 µM | 1.02
SK-ES-1, 0.04115 µM | 0.947
SK-ES-1, 0.1235 µM | 0.944
SK-ES-1, 0.3704 µM | 0.79
SK-ES-1, 1.111 µM | 0.683
SK-ES-1, 3.333 µM | 0.529
SK-ES-1, 10 µM | 0.473
SK-LMS-1, 0.00017 µM | 0.971
SK-LMS-1, 0.00051 µM | 0.95
SK-LMS-1, 0.00152 µM | 0.96
SK-LMS-1, 0.00457 µM | 1
SK-LMS-1, 0.01372 µM | 0.954
SK-LMS-1, 0.04115 µM | 0.959
SK-LMS-1, 0.1235 µM | 0.909
SK-LMS-1, 0.3704 µM | 0.8304
SK-LMS-1, 1.111 µM | 0.651
SK-LMS-1, 3.333 µM | 0.594
SK-LMS-1, 10 µM | 0.55
SW982, 0.00017 µM | 0.991
SW982, 0.00051 µM | 0.985
SW982, 0.00152 µM | 1.02
SW982, 0.00457 µM | 1
SW982, 0.01372 µM | 0.945
SW982, 0.04115 µM | 0.949
SW982, 0.1235 µM | 0.962
SW982, 0.3704 µM | 0.881
SW982, 1.111 µM | 0.824
SW982, 3.333 µM | 0.745
SW982, 10 µM | 0.652
SW1353, 0.00017 µM | 1.04
SW1353, 0.00051 µM | 1.05
SW1353, 0.00152 µM | 1.03
SW1353, 0.00457 µM | 1.02
SW1353, 0.01372 µM | 0.991
SW1353, 0.04115 µM | 0.93
SW1353, 0.1235 µM | 0.935
SW1353, 0.3704 µM | 0.862
SW1353, 1.111 µM | 0.864
SW1353, 3.333 µM | 0.781
SW1353, 10 µM | 0.727
SYO-1, 0.00017 µM | 0.95
SYO-1, 0.00051 µM | 0.94
SYO-1, 0.00152 µM | 0.862
SYO-1, 0.00457 µM | 0.821
SYO-1, 0.01372 µM | 0.807
SYO-1, 0.04115 µM | 0.776
SYO-1, 0.1235 µM | 0.719
SYO-1, 0.3704 µM | 0.656
SYO-1, 1.111 µM | 0.636
SYO-1, 3.333 µM | 0.549
SYO-1, 10 µM | 0.504
VA-ES-BJ, 0.00017 µM | 1.07
VA-ES-BJ, 0.00051 µM | 1.04
VA-ES-BJ, 0.00152 µM | 1.03
VA-ES-BJ, 0.00457 µM | 1.022
VA-ES-BJ, 0.01372 µM | 0.955
VA-ES-BJ, 0.04115 µM | 0.8984
VA-ES-BJ, 0.1235 µM | 0.819
VA-ES-BJ, 0.3704 µM | 0.666
VA-ES-BJ, 1.111 µM | 0.492
VA-ES-BJ, 3.333 µM | 0.418
VA-ES-BJ, 10 µM | 0.368
